Values of other authors, collected in patent publication US8278478B2, “Process for the synthesis of hydrochloride salt of N-fatty acylsubstituted amino acid ethyl esters” (priority 2009, dated 2012).

Conditions: at 20° C.

CCCCCCCCCCCC(=O)N[C@@H](CCCNC(=N)N)C(=O)OCC.Cl [Ethyl lauroyl arginate, ethyl-Nα-lauroyl-L-arginate HCl]
solubility in water: greater than 247 g/kg
